Test results taken from patent US20250152605A1, “METHOD AND DRUG FOR TREATING NEURONAL CEROID LIPOFUSCINOSIS” (priority 2021, published 2025).
Where a name gives a salt, the structure may show the parent alone.

Tests used:
[1] = system: BFP-LC3 stably expressing NRK cells; test: Lysotracker staining of BFP-LC3 stably expressing NRK cells; assay type: cell-based, rat; conditions: treatment for 18 hours, compared with control cells
Description: Moreover, after treating BFP-LC3 stably expressing NRK cells with these seven small molecule compounds for 18 hours, staining with Lysotracker dye was performed.

SCMAS protein = SCMAS protein storage in neurons (immunofluorescence staining and western blot); assay type: cell-based, human; conditions: CLN3^Δex7/8 neurons
Description: Sample preparation: for adherent cultured cells, exemplified by cells cultured in a six-well cell plate, the cell medium was aspirated and the cells were washed once with dPBS. About 100 μL of RIPA lysate (50 mM Tris-HCl, pH 7.5, 150 mM NaCl, 0.25% Na-deoxycholate, 0.1% NP-40, 0.1% Triton X-100) containing protease inhibitors and phosphatase inhibitors was added to each well. The cell lysate was scraped off completely with a cell scraper and collected into 1.5 mL EP tubes. Lysis was continued for 30 minutes on ice. For animal tissue, the weight of the animal tissue was weighed, and RIPA lysate containing protease inhibitors and phosphatase inhibitors was added with five times the volume of the animal tissue. The tissue was grinded on ice with a tissue grinder until there is no obvious tissue mass, collected into 1.5 mL EP tubes, and placed on ice for further lysis for 30 min. […]

NRK cells = test: Lysotracker staining of NRK cells, flow cytometry; assay type: cell-based, rat
Excerpt: The impact of increased p62 protein levels on the cellular lysosomal functions was detected: GFP-p62 proteins and GFP proteins of the control group were overexpressed in NRK cells, and Lysotracker dye was used to detect the acidity of lysosomes in GFP-positive cells.

[2] = system: CLN3^Δex7/8 human neurons; test: Lysotracker staining of CLN3^Δex7/8 human neurons, flow cytometry; assay type: cell-based
Description: In analyzing the mean fluorescence intensity of neural stem cells and neuronal staining or single cell establishment of NRK cells, flow cytometry was used: the cell medium was aspirated off, after wash with dPBS once, the digestive enzyme corresponding to the cell type was added to digest into single cells; the supernatant was removed by centrifugation, and the cells were resuspended with 1 mL of fresh medium; the cell suspension with filtered through 40 μm filter membrane and the single cell filtrate was collected; the single cell filtrate was transferred to a flow tube and analyzed or sorted using BD FACS Aria III; in the analysis, the fluorescence intensity of 1×10^4 cells for each sample was analyzed to obtain the mean fluorescence intensity (MFI); for sorting, cells were received in 96 well plates with medium, one cell per well to establish a cell line.
Studies above have shown that CLN3^Δex7/8 human neurons feature lysosomal acidity dysregulation. To investigate the effect of Compound G on lysosomal acidity in CLN3^Δex7/8 neurons, Lysotracker dye was used for staining and flow cytometry was used for analyzing the fluorescence intensity of Lysotracker dye in cells.

| SMILES | intracellular Lysotracker staining (lysosomal acidity) [1] | abnormal storage of SCMAS protein (SCMAS protein) | intracellular lysosomal acidity (Lysotracker) (NRK cells) | Lysotracker fluorescence intensity in CLN3^Δex7/8 human neurons [2] |
| --- | --- | --- | --- | --- |
| CO/C1=C\C(C)=C\[C@@H](C)[C@@H](O)[C@@H](C)C/C(C)=C/C=C/[C@H](OC)[C@@H]([C@@H](C)[C@@H](O)[C@H](C)[C@@]2(O)C[C@@H](O)[C@H](C)[C@@H](C(C)C)O2)OC1=O [Baf-A1, bafilomycin A1] | significant decrease in lysosomal acidity |  |  |  |
| COC(=O)/C=C/C(=O)OC [DMF, dimethyl fumarate, reference compound] |  | significantly reduced | significantly increase the intracellular lysosomal acidity | significantly increased |
